For this experiment, the target named is T1, vanilloid receptor 1 (VR1/TRPV1 receptor) (Homo sapiens, UniProt Q8NER1).
T1 construct: expressed in transfected cells; host or cells: CHO K1 cells (ECACC), stably transfected
The experiment is described as follows: VR1/TRPV1 receptor affinity, capsaicin stimulus (human). Type of experiment: cell-based, human being. The arrangement: key to (f) Ki (human being) [nM] Cap: result in words: AG=agonist; pAG=partial agonist; NE=no effect. The note with it: for Ki: Tables 8-12, read-out: (f) Ki (human being) [nM] Cap; for (f) Ki (human being) [nM] Cap: result in words / (f) Ki (human being) [nM] Cap: inhibition (as a percentage): Tables 8-12; for inhibition at 5 µM: Tables 8-12, read-out: (f) Ki (human being) [nM] Cap: inhibition (as a percentage); for inhibition at 5 µM / (f) Ki (human being) [nM] Cap: inhibition (as a percentage): @ 5 μM.

T1 sequence (Q8NER1 whole entry): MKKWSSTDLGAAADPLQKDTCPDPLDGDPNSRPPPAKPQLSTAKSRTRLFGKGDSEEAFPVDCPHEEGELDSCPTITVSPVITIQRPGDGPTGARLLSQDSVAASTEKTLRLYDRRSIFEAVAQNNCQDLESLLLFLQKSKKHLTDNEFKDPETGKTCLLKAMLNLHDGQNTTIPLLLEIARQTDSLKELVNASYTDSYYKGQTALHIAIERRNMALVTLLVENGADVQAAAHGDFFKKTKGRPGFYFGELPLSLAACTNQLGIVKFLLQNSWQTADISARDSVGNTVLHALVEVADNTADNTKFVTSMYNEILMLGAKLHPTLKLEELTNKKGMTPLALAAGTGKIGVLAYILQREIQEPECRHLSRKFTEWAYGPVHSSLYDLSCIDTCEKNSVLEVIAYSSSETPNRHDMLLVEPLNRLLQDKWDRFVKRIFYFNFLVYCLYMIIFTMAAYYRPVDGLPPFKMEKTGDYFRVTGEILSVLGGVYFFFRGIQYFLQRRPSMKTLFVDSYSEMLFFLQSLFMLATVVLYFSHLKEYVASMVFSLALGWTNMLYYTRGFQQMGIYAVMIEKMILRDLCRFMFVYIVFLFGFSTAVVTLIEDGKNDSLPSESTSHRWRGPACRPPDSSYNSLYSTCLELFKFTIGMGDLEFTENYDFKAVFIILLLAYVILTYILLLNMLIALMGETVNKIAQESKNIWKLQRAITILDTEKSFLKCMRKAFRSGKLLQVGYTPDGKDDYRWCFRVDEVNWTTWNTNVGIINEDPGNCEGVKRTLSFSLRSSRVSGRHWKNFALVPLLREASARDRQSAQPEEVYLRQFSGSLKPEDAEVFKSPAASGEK

What is called Ki is a measure of affinity in units of concentration, obtained from inhibition or displacement. On to “4-[1-[[2-(3-Chlorophenyl)-5-(trifluoromethyl)-2H-pyrazol-3-yl]-methyl-carbamoyl]-ethyl]-2-fluoro-N-(oxetan-3-yl)-benzamide [Example E19]”, for which the inhibitory constant (Ki) came to 41 nM.

For the compound “4-[[[5-tert-Butyl-2-(3-chlorophenyl)-2H-pyrazol-3-yl]-methyl-carbamoyl]amino]-2-methoxy-benzamide [Example E7]”, the inhibition constant (Ki) was determined as 66 nM.

Take `CC(C(=O)NCc1cc(C(C)(C)C)nn1-c1cccc(Cl)c1)c1ccc(S(C)(=O)=O)c(F)c1` (stereo not shown) [Example D1, N-[[5-tert-Butyl-2-(3-chlorophenyl)-2H-pyrazol-3-yl]-methyl]-2-(3-fluoro-4-methylsulfonyl-phenyl)-propionamide]: the “(f) Ki (human being) [nM] Cap: result in words” value (shortened to “(f) Ki (human being) … in words”) is “AG”.

Take `CCS(=O)(=O)NCc1ccc(NC(=O)NCc2cc(C(C)(C)C)nn2-c2cccc(Cl)c2)cc1` [Example B85, 1-[[5-tert-Butyl-2-(3-chlorophenyl)-2H-pyrazol-3-yl]-methyl]-3-[4-[[(ethylsulfonyl)amino]-methyl]-phenyl]-urea]: the Ki was determined as 16 nM.

Consider `CC(C(=O)NCc1cc(C(C)(C)C)nn1-c1ccc(Cl)cc1)c1ccc(CNS(C)(=O)=O)c(F)c1` (stereo not shown) [Example B20, N-[[5-tert-Butyl-2-(4-chlorophenyl)-2H-pyrazol-3-yl]-methyl]-2-[3-fluoro-4-(methanesulfonamido-methyl)-phenyl]-propionamide], for which the inhibition constant Ki amounted to 52 nM.

As to `CS(=O)(=O)NCc1ccc(NC(=O)NCc2cc(C(F)(F)F)nn2-c2cccc(F)c2)cc1F` [Example B48, 1-[3-Fluoro-4-(methanesulfonamido-methyl)-phenyl]-3-[[2-(3-fluorophenyl)-5-(trifluoromethyl)-2H-pyrazol-3-yl]-methyl]-urea], the Ki was determined as 40 nM.

Broadly, the inhibition is the change of the read-out against control, counted positive when it falls. Turning to `O=C(NCc1cc(C(F)(F)F)nn1-c1cccc(F)c1)Nc1ccc(N2CCCC2)c(F)c1` [Example C4, 1-[[2-(3-Fluorophenyl)-5-(trifluoromethyl)-2H-pyrazol-3-yl]-methyl]-3-(3-fluoro-4-pyrrolidin-1-yl-phenyl)-urea], the inhibition at 5 µM amounted to 13%.

As to `CC(=O)NCc1ccc(C(C)C(=O)NCc2cc(C(F)(F)F)nn2-c2cccc(Cl)c2)cc1F` (stereo not shown) [Example B66, 2-[4-(Acetylamino-methyl)-3-fluoro-phenyl]-N-[[2-(3-chlorophenyl)-5-(trifluoromethyl)-2H-pyrazol-3-yl]-methyl]-propionamide], the Ki was found to be 29 nM.

With `CC(C(=O)NCc1cc(C(C)(C)C)nn1-c1cccc(Cl)c1)c1ccc(CS(C)(=O)=O)c(F)c1` (stereo not shown) [Example D7, N-[[5-tert-Butyl-2-(3-chlorophenyl)-2H-pyrazol-3-yl]-methyl]-2-[3-fluoro-4-(methylsulfonyl-methyl)-phenyl]-propionamide], the inhibition constant (Ki) stood at 27 nM.

For the compound `CC(C(=O)NCc1cc(C(C)(C)C)nn1-c1cccc(Cl)c1)c1ccc(CNS(N)(=O)=O)c(F)c1` (stereo not shown) [Example B93, N-[[5-tert-Butyl-2-(3-chlorophenyl)-2H-pyrazol-3-yl]-methyl]-2-[3-fluoro-4-[(sulfamoylamino)-methyl]-phenyl]-propionamide], the Ki was 4 nM.

Turning to “1-[[2-(3,4-Difluoro-phenyl)-5-(trifluoromethyl)-2H-pyrazol-3-yl]-methyl]-3-[3-fluoro-4-(2-hydroxy-ethoxy-methyl)-phenyl]-urea [Example A132]”, the “(f) Ki (human being) [nM] Cap: inhibition (as a percentage)” value stood at 48% @ 5 μM.

In the case of `CC(C(=O)NCc1cc(C(C)(C)C)nn1-c1cccc(Cl)c1)c1ccc(CN(C)S(C)(=O)=O)c(F)c1` (stereo not shown) [Example B30, N-[[5-tert-Butyl-2-(3-chlorophenyl)-2H-pyrazol-3-yl]-methyl]-2-[3-fluoro-4-[(methyl-methylsulfonyl-amino)-methyl]-phenyl]-propionamide], the inhibition constant Ki stood at 39 nM.

Regarding `CC(C(=O)NCc1cc(C(C)(C)C)nn1-c1cccc(C(F)(F)F)c1)c1ccc(CO)c(F)c1` (stereo not shown) [Example A47, N-[[5-tert-Butyl-2-[3-(trifluoromethyl)phenyl]-2H-pyrazol-3-yl]-methyl]-2-[3-fluoro-4-(hydroxymethyl)-phenyl]-propionamide], the “(f) Ki (human being) … in words” value is “AG”.

As to `NS(=O)(=O)NCc1ccc(NC(=O)NCc2cc(C3CC3)nn2-c2cccc(Cl)c2)cc1` [Example B75, 1-[[2-(3-Chlorophenyl)-5-cyclopropyl-2H-pyrazol-3-yl]-methyl]-3-[4-[(sulfamoylamino)-methyl]-phenyl]-urea], the inhibition constant Ki amounted to 19 nM.

On to `Cc1cccc(-n2nc(C(F)(F)F)cc2CNC(=O)Nc2ccc(CNS(C)(=O)=O)c(F)c2)c1` [Example B87, 1-[3-Fluoro-4-(methanesulfonamido-methyl)-phenyl]-3-[[2-(m-tolyl)-5-(trifluoromethyl)-2H-pyrazol-3-yl]-methyl]-urea], for which the Ki was found to be 15 nM.

On to `CC(C(=O)NCc1cc(C(F)(F)F)nn1-c1cccc(Cl)c1)c1ccc(CNS(C)(=O)=O)cc1` (stereo not shown) [Example B5, N-[[2-(3-Chlorophenyl)-5-(trifluoromethyl)-2H-pyrazol-3-yl]-methyl]-2-[4-(methanesulfonamido-methyl)-phenyl]-propionamide], for which the inhibition constant Ki was 9 nM.

`CC(C(=O)NCc1cc(C(F)(F)F)nn1-c1cccc(Cl)c1)c1ccc(C(N)=O)c(F)c1` (stereo not shown) [Example E4, 4-[1-[[2-(3-Chlorphenyl)-5-(trifluormethyl)-2H-pyrazol-3-yl]-methyl-carbamoyl]-ethyl]-2-fluoro-benzamide]: the Ki is 8 nM.

For the compound `COc1cccc(-n2nc(C(F)(F)F)cc2CNC(=O)Nc2ccc(CNS(N)(=O)=O)c(F)c2)c1` [Example B71, 1-[3-Fluoro-4-[(sulfamoylamino)-methyl]-phenyl]-3-[[2-(3-methoxyphenyl)-5-(trifluoromethyl)-2H-pyrazol-3-yl]-methyl]-urea], the inhibitory constant (Ki) stood at 41 nM.

For the compound `CS(=O)(=O)NCc1ccc(NC(=O)NCc2cc(C(F)(F)F)nn2-c2cccc(F)c2)cc1` [Example B44, 1-[[2-(3-Fluorophenyl)-5-(trifluoromethyl)-2H-pyrazol-3-yl]-methyl]-3-[4-(methanesulfonamido-methyl)-phenyl]-urea], the Ki came out at 44 nM.

Take `CS(=O)(=O)CCc1ccc(NC(=O)NCc2cc(C(F)(F)F)nn2-c2cccc(Cl)c2)cc1F` [Example D27, 1-[[2-(3-Chlorophenyl)-5-(trifluoromethyl)-2H-pyrazol-3-yl]-methyl]-3-[3-fluoro-4-(2-methylsulfonyl-ethyl)-phenyl]-urea]: the Ki came out at 40 nM.

For the compound `O=C(NCc1cc(C(F)(F)F)nn1-c1cccc(Cl)c1)Nc1ccc(N2CCOCC2)c(F)c1` [Example C5, 1-[[2-(3-Chlorophenyl)-5-(trifluoromethyl)-2H-pyrazol-3-yl]-methyl]-3-(3-fluoro-4-morpholin-4-yl-phenyl)-urea], the Ki was 44 nM.

Regarding `COCCOc1ccc(NC(=O)NCc2cc(C(C)(C)C)nn2-c2cccc(Cl)c2)cc1F` [Example A17, 1-[[5-tert-Butyl-2-(3-chlorophenyl)-2H-pyrazol-3-yl]-methyl]-3-[3-fluoro-4-(2-methoxy-ethoxy)-phenyl]-urea], the “(f) Ki (human being) … in words” value is listed as “AG”.

Turning to “4-[[[2-(3-Chlorophenyl)-5-(trifluoromethyl)-2H-pyrazol-3-yl]-methyl-carbamoyl]-methyl]-N-phenyl-benzamide [Example E26]”, the Ki came out at 25 nM.

For `CS(=O)(=O)NCc1ccc(NC(=O)NCc2cc(C(F)(F)F)nn2-c2ccc(F)c(F)c2)cc1F` [Example B49, 1-[[2-(3,4-Difluoro-phenyl)-5-(trifluoromethyl)-2H-pyrazol-3-yl]-methyl]-3-[3-fluoro-4-(methanesulfonamido-methyl)-phenyl]-urea], the inhibition constant Ki was 11 nM.

Regarding `NS(=O)(=O)NCc1ccc(NC(=O)NCc2cc(C(F)(F)F)nn2-c2cccc(F)c2)cc1F` [Example B60, 1-[[2-(3-Fluorophenyl)-5-(trifluoromethyl)-2H-pyrazol-3-yl]-methyl]-3-[3-fluoro-4-[(sulfamoylamino)-methyl]-phenyl]-urea], the Ki came out at 25 nM.

Regarding “2-Chloro-4-[[[2-(3-chlorophenyl)-5-(trifluoromethyl)-2H-pyrazol-3-yl]-methyl-carbamoyl]amino]-benzoic acid [Example E54]”, the “(f) Ki (human being) [nM] Cap: inhibition (as a percentage)” value is recorded as 20% @ 5 μM.

On to `NCc1ccc(NC(=O)NCc2cc(C(F)(F)F)nn2-c2cccc(Cl)c2)cc1F` [Example B39, 1-[4-(Aminomethyl)-3-fluoro-phenyl]-3-[[2-(3-chlorophenyl)-5-(trifluoromethyl)-2H-pyrazol-3-yl]-methyl]-urea], for which the inhibition at 5 µM amounted to 37%.

`NS(=O)(=O)NCc1ccc(NC(=O)NCc2cc(C(F)(F)F)nn2-c2cccc(F)c2)cc1` [Example B77, 1-[[2-(3-Fluorophenyl)-5-(trifluoromethyl)-2H-pyrazol-3-yl]-methyl]-3-[4-[(sulfamoylamino)-methyl]-phenyl]-urea]: the Ki was 44 nM.

On to `CC(C(=O)NCc1cc(C(F)(F)F)nn1-c1cccc(F)c1)c1ccc(CNS(C)(=O)=O)c(F)c1` (stereo not shown) [Example B7, 2-[3-Fluoro-4-(methanesulfonamido-methyl)-phenyl]-N-[[2-(3-fluorophenyl)-5-(trifluoromethyl)-2H-pyrazol-3-yl]-methyl]-propionamide], for which the Ki was determined as 7 nM.

`CC(C)c1cccc(-n2nc(C(F)(F)F)cc2CNC(=O)C(C)c2ccc(CNS(N)(=O)=O)c(F)c2)c1` (stereo not shown) [Example B94, 2-[3-Fluoro-4-[(sulfamoylamino)-methyl]-phenyl]-N-[[2-(3-isopropyl-phenyl)-5-(trifluoromethyl)-2H-pyrazol-3-yl]-methyl]-propionamide]: the inhibitory constant (Ki) amounted to 0.9 nM.

With `CC(C)(C)c1cc(CNC(=O)Nc2ccc(CNS(C)(=O)=O)c(F)c2)n(-c2cccc(Cl)c2)n1` [Example B31, 1-[[5-tert-Butyl-2-(3-chlorophenyl)-2H-pyrazol-3-yl]-methyl]-3-[3-fluoro-4-(methanesulfonamido-methyl)-phenyl]-urea], the Ki was 9 nM.

For the origin of these results see patent US9624209B2, “Substituted phenylureas and phenylamides as vanilloid receptor ligands” (Gruenenthal GmbH, priority 2009, dated 2017).
